Measured values: US12240811B2, “N-heterocyclic five-membered ring-containing capsid protein assembly inhibitor, pharmaceutical composition and uses thereof” (CHIA TAI TIANQING PHARMACEUTICAL GROUP CO., LTD., priority 2019, dated 2025)

Assays:
[1] = Stability of liver microsomes in vitro, rat; format: in vitro ADME
Protocol: (§1) 300 μL of a final incubation system contains 30 μL of liver microsomes (protein concentration: 0.15 mg/mL, Corning), 30 μL NADPH+MgCl2, 3 μL substrate (formulated with acetonitrile), and 237 μL PBS buffer. Duplicate incubation systems of 0.3 mL each were formulated for each species. A total volume of 270 μL of a uniformly mixed solution of the substrate and the enzyme was formulated in each tube, the solution and NADPH were pre-incubated at 37° C. for 5 minutes, respectively. Then 30 μL of the mixed solution of NADPH+MgCl2 was added for reaction. 50 μL of the reaction solution was taken out at 0, 10, 30, and 60 mins, and the reaction was terminated with 300 μL of ice acetonitrile containing an internal standard.
(§2) Sample pre-treatment: To 50 μL of the incubated sample was added 300 μL of ice acetonitrile containing diazepam as an internal standard and then precipitated. After vortexing for 5 minutes, the sample was centrifugated (12000 rpm, 4° C.) for 10 minutes. 75 μL of the supernatant was pipetted into a 96-well plate, and then diluted with 75 μL ultrapure water and mixed uniformly. 0.5 μL of the resulting solution was injected and analyzed by LC-MS/MS.

[2] = tested on: HBV DNA in HepG2.2.15 cells; test: In vitro cell HBV DNA inhibitory activity in HepG2.2.15 cells; format: cell-based; conditions: Hepatitis B virus, 144 h, 6 days treatment, intracellular capsid HBV DNA by qPCR, read-out: EC50, anti-HBV activity in HepG2.2.15 cells
Protocol: A bottle of HepG2.2.15 (Wuhan Institute of Virology) or HepAD38 cells in good exponential growth state was taken, washed once by adding 5 mL PBS, and then thereto was added 3 mL trypsin. After digesting at room temperature for 5 min, 2 mL trypsin was discarded, and then the sample was placed in a cell culture incubator and digested for 10 min. The cells were taken out and observed under a microscope (whether the cells were individually round and there was no adhesion between the cells). 10 mL complete medium was added to terminate the digestion. After pipetting into a single cell suspension, 10 μL of the cell suspension was taken out for cell counting with a cell counter, and then diluted with a complete medium and adjusted to a cell density of 1*10^5 cells/mL. […]
Compounds dissolved in DMSO were subjected to two-fold gradient dilution (10 concentrations in total) with complete medium. […] After lysing at room temperature for 10 min, DNA was extracted, and HBV DNA in the intracellular viral capsid was measured by real-time fluorescence quantitative PCR. The inhibition rate was calculated based on the Ct value, and the EC50 value was calculated by the four-parameter method.

[3] = Stability of liver microsomes in vitro, human; format: in vitro ADME
Protocol: as §1, §2

HBV DNA in serum = test: pAAV/HBV mouse model; format: in vivo, C57BL/6 mice; conditions: 3 mpk intragastric once daily
Protocol: 6-8 week old male C57BL/6 mice (Shanghai Lingchang Biotechnology Co., Ltd.) were used, and each mouse was injected with purified recombinant plasmid pAAV/HBV1.2 ([…]) dissolved in PBS equivalent to a volume of about 10% of its body weight through the tail vein within 3-8 s. Blood was collected from the orbits of the mice at 3 days after the plasmid injection to detect serum HBV DNA. The model mice having uniform serum DNA were selected and divided into: a model control group, a vehicle control group, and a test substance group. Mice in each group were continuously administered intragastrically once daily for 10 days at a dose of 3 mg/kg. The mouse serum was taken on day 0, 4, 7, and 10 after the administration, and the mice were sacrificed on day 10 to take liver tissue samples. The HBV DNA copy numbers in serum and liver of the mice were detected by fluorescent quantitative PCR method.

[4] = Stability of liver microsomes in vitro, mouse; format: in vitro ADME
Protocol: as §1, §2

SMILES: Cc1[nH]c(C(=O)C(=O)N[C@H](C)C(F)(F)F)c(C)c1C(=O)Nc1ccc(F)c(C#N)c1 [Example 2, (R)—N-(3-cyano-4-fluorophenyl)-2,4-dimethyl-5-(2-oxo-2-((1,1,1-trifluoroprop-2-yl)amino)acetyl)-1H-pyrrole-3-carboxamide]
- Remaining (%) of rat liver microsomes at 60 min [1]: 99%
- EC50 [2]: 10.7 nM
- Remaining (%) of human liver microsomes at 60 min [3]: 100%
- Reduction levels (log10) of HBV DNA in serum, Day 4 (HBV DNA in serum; Day 4): 2.92 log10
- Reduction levels (log10) of HBV DNA in serum, Day 7 (HBV DNA in serum; Day 7): 4.09 log10
- Reduction levels (log10) of HBV DNA in serum, Day 10 (HBV DNA in serum; Day 10): 2.42 log10
- Remaining (%) of mouse liver microsomes at 60 min [4]: 100%
